Assay results reported in ChEMBL document CHEMBL1201862, “PubChem BioAssay data set” (2004).
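48-hour exposure; five concentrations; linearly interpolated endpoints. GI50 = concentration required for 50% inhibition of growth.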 Active and inactive are the calls of the source. Rule as the data show it: active = GI50 up to about 1.1 µM and inactive = higher.

Legend:
Assay in all cases: DTP human tumour cell line panel, 48 h
EKVX = tested on: EKVX
UACC-62 = tested on: UACC-62
HOP-92 = tested on: HOP-92
SK-MEL-28 = tested on: SK-MEL-28
DLD-1 = tested on: DLD-1
MOLT-4 = tested on: MOLT-4
MDA-MB-231 = tested on: MDA-MB-231
XF498 = tested on: XF498
HCT-15 = tested on: HCT-15
A549 = tested on: A549
PC-3 = tested on: PC-3
DMS-114 = tested on: DMS-114
CCRF-CEM = tested on: CCRF-CEM
SNB-75 = tested on: SNB-75
U-251 = tested on: U-251
KM12 = tested on: KM12
ACHN = tested on: ACHN
SF-268 = tested on: SF-268
DU-145 = tested on: DU-145
BT-549 = tested on: BT-549
SF-539 = tested on: SF-539
MCF7 = tested on: MCF7
HOP-18 = tested on: HOP-18
M14 = tested on: M14
DMS-273 = tested on: DMS-273
NCI-H226 = tested on: NCI-H226
SNB-78 = tested on: SNB-78
SNB-19 = tested on: SNB-19
Malme-3M = tested on: Malme-3M
HCC 2998 = tested on: HCC 2998
M19-MEL = tested on: M19-MEL
OVCAR-3 = tested on: OVCAR-3
HOP-62 = tested on: HOP-62
RXF 393 = tested on: RXF 393
KM-20L2 = tested on: KM-20L2
T47D = tested on: T47D
Hs-578T = tested on: Hs-578T
NCI-H23 = tested on: NCI-H23
SF-295 = tested on: SF-295
K562 = tested on: K562
UO-31 = tested on: UO-31
786-0 = tested on: 786-0
OVCAR-4 = tested on: OVCAR-4
SK-MEL-2 = tested on: SK-MEL-2
IGROV-1 = tested on: IGROV-1
SK-OV-3 = tested on: SK-OV-3
A498 = tested on: A498
SK-MEL-5 = tested on: SK-MEL-5
HCT-116 = tested on: HCT-116
UACC-257 = tested on: UACC-257
NCI/ADR-RES = tested on: NCI/ADR-RES
OVCAR-5 = tested on: OVCAR-5
RPMI-8226 = tested on: RPMI-8226
SN12C = tested on: SN12C
HL-60 = tested on: HL-60
MDA-N = tested on: MDA-N
CAKI-1 = tested on: CAKI-1
LXFL 529 = tested on: LXFL 529
NCI-H460 = tested on: NCI-H460
SW-620 = tested on: SW-620
MDA-MB-435 = tested on: MDA-MB-435
COLO 205 = tested on: COLO 205
HT-29 = tested on: HT-29
SR = tested on: SR
LOX IMVI = tested on: LOX IMVI
NCI-H522 = tested on: NCI-H522
TK-10 = tested on: TK-10
OVCAR-8 = tested on: OVCAR-8
RXF 631 = tested on: RXF 631

Measured: GI50

C=C1C(=O)OC2CC3(C)OC3CC/C(C)=C/C(OC(C)=O)C12 (stereo not given)
5.57 µM: HCT-15
active: NCI-H522 1.04 µM
inactive: EKVX 16.9 µM | UACC-62 9.89 µM | HOP-92 1.82 µM | SK-MEL-28 5.56 µM | DLD-1 2.75 µM | MOLT-4 3.37 µM | MDA-MB-231 12.4 µM | XF498 2 µM | A549 17.3 µM | PC-3 13.2 µM | DMS-114 7.4 µM | CCRF-CEM 2.12 µM | SNB-75 8.77 µM | U-251 18.6 µM | KM12 15.1 µM | ACHN 11.2 µM | SF-268 17 µM | DU-145 15.1 µM | BT-549 9.71 µM | SF-539 6.37 µM | MCF7 4.59 µM | HOP-18 10.4 µM | M14 3.32 µM | DMS-273 14.9 µM | NCI-H226 7.45 µM | SNB-78 9.44 µM | SNB-19 18.3 µM | Malme-3M 2.55 µM | HCC 2998 16.9 µM | M19-MEL 8.04 µM | OVCAR-3 10.5 µM | HOP-62 18.7 µM | RXF 393 4.79 µM | KM-20L2 6.55 µM | T47D 3.76 µM | Hs-578T 13.2 µM | NCI-H23 13.3 µM | SF-295 14 µM | K562 2.47 µM | UO-31 13.6 µM | 786-0 4.6 µM | OVCAR-4 6.01 µM | SK-MEL-2 15.5 µM | IGROV-1 17.1 µM | SK-OV-3 20 µM | A498 15.8 µM | SK-MEL-5 8.02 µM | HCT-116 4.05 µM | UACC-257 9.64 µM | NCI/ADR-RES 11.3 µM | OVCAR-5 8.51 µM | RPMI-8226 2.13 µM | SN12C 11.5 µM | HL-60 1.41 µM | MDA-N 6.12 µM | CAKI-1 2.13 µM | LXFL 529 2.14 µM | NCI-H460 15.4 µM | SW-620 1.72 µM | MDA-MB-435 12.6 µM | COLO 205 1.75 µM | HT-29 4.15 µM | SR 3.07 µM | LOX IMVI 5.22 µM | TK-10 3.61 µM | OVCAR-8 4.71 µM

CC(=O)n1ccc2c(Cl)ncnc21
active: SNB-75 < 0.01 µM | RXF 393 0.038 µM
> 100 µM: HCT-15
inactive: EKVX > 67.3 µM | UACC-62 > 100 µM | HOP-92 > 100 µM | SK-MEL-28 > 100 µM | DLD-1 > 100 µM | MOLT-4 > 100 µM | A549 > 100 µM | DMS-114 > 100 µM | CCRF-CEM > 100 µM | U-251 > 100 µM | KM12 > 100 µM | ACHN > 100 µM | SF-268 > 100 µM | RXF 631 > 100 µM | SF-539 > 100 µM | M14 > 100 µM | DMS-273 > 100 µM | SNB-78 > 100 µM | SNB-19 > 100 µM | HCC 2998 > 100 µM | M19-MEL > 100 µM | OVCAR-3 > 100 µM | HOP-62 > 100 µM | KM-20L2 > 100 µM | NCI-H23 > 100 µM | SF-295 > 100 µM | K562 > 100 µM | 786-0 > 100 µM | SK-MEL-2 > 100 µM | IGROV-1 > 100 µM | SK-OV-3 > 100 µM | A498 > 100 µM | SK-MEL-5 > 100 µM | HCT-116 > 100 µM | UACC-257 > 100 µM | RPMI-8226 > 100 µM | SN12C > 100 µM | HL-60 > 100 µM | CAKI-1 > 61.4 µM | LXFL 529 > 100 µM | NCI-H460 > 100 µM | SW-620 > 100 µM | COLO 205 > 100 µM | HT-29 > 100 µM | SR > 100 µM | LOX IMVI > 100 µM | NCI-H522 > 37.6 µM | TK-10 > 100 µM | OVCAR-8 > 100 µM
